Measurements as given in patent US8758743B2, “Compositions containing coenzyme Q10” (Taiyo Kagaku Co., Ltd., priority 2003, dated 2014).
Where two headings read alike, the source gives them in different places.

Tests used:
[1] = Storage of powder products at 50° C. under light shielding (Test Example 1-1); type: physicochemical
Experimental: In addition, the powder products of Examples 1-6 and 1-7 and a coenzyme Q10 itself (manufactured by Kanegafuchi Kagaku Kogyo Kabushiki Kaisha) were used as test samples, and the storage states before the beginning of storage, and after storage at 50° C. for 4 weeks or 12 weeks passed under light shielding were confirmed.

[2] = Bioabsorbability Test 2 of coenzyme Q10 (Test Example 1-4); type: in vivo; conditions: male, SD, rat, plasma, po, 5 mg/kg; for concentration at 1 h: 1 hour after administration; for AUC: read-out: AUC1-24
Experimental: The bioabsorbability of a coenzyme Q10 was evaluated by administering each of the coenzyme Q10-containing composition of Example 1-2 and a coenzyme Q10 itself to a rat as a test sample, sampling blood over time, and measuring the coenzyme Q10 concentration in the plasma, and the bioabsorbability was compared among the test samples.
The feeding conditions were set in 2 ways; a case where rats were allowed to take the feed ad libitum (satiation), and a case where rats were made to fast since the early-evening of the previous day of the test, and where the rats were fed again after blood sampling of 8 hours after the administration of the test sample.
The solution of distilled water in Tests A and A′ was prepared by adding the coenzyme Q10-containing composition of Example 1-2 to distilled water and mixing the mixture. The suspension of a 0.5(w/v)% aqueous CMC—Na solution in Tests B and B′ was prepared by adding a coenzyme Q10 itself to a 0.5(w/v)% aqueous CMC-Na solution and subjecting the mixture to ultrasonication.
The conditions and the like for this test are listed hereinbelow. • Rat: SD line, 7-week old, male, n=4 • Dose: The test samples calculated as 5 mg of a coenzyme Q10 per 1 kg of the body weight of a rat were administered. • Amount of administered liquid: The suspension or the solution used in Tests A, A′, B, or B′ was administered in an amount of 5 mL per 1 kg of the body weight of a rat.
Method of administration, blood sampling, time of blood sampling, processing of blood and method of quantification were same as those in the above-mentioned Test Example 1-3.

Structure (SMILES): COC1=C(OC)C(=O)C(C/C=C(\C)CC/C=C(\C)CC/C=C(\C)CC/C=C(\C)CC/C=C(\C)CC/C=C(\C)CC/C=C(\C)CC/C=C(\C)CC/C=C(\C)CCC=C(C)C)=C(C)C1=O [Coenzyme Q10 Powder, coenzyme Q10]
- Storage State ([1]; after 4 weeks): Melted
- Storage State ([1]; after 12 weeks): Melted
- concentration at 1 h ([2]; fasting): 30 ± 10 ng/mL
- concentration at 2 h ([2]; fasting): 30 ± 10 ng/mL
- concentration at 4 h ([2]; fasting): 30 ng/mL
- concentration at 8 h ([2]; fasting): 30 ± 10 ng/mL
- concentration at 24 h ([2]; fasting): 40 ± 110 ng/mL
- AUC ([2]; fasting): 780 ± 300 ng·h/mL
- concentration at 1 h ([2]; satiation): 120 ± 70 ng/mL
- concentration at 2 h ([2]; satiation): 170 ± 110 ng/mL
- concentration at 4 h ([2]; satiation): 260 ± 90 ng/mL
- concentration at 8 h ([2]; satiation): 270 ± 90 ng/mL
- concentration at 24 h ([2]; satiation): 110 ± 40 ng/mL
- AUC ([2]; satiation): 4780 ± 1310 ng·h/mL
